Read-outs that look alike come from different tables or passages of the source.
Test system: 8XTBD luciferase reporter (YAP) in HEK293T cells
Test: YAP Reporter Assay
Format: cell-based
Conditions: Homo sapiens, HEK-293T
[1] = HEK293T cells stably transfected with 8XTBD luciferase reporter and pRLTK, 24-hr incubation, top concentration 3 μM, read-out: Firefly Luciferase IC50
[2] = 24 h, read-out: Firefly Luciferase IC50 (μM)
[3] = […], 24-hr incubation, top concentration 3 μM, read-out: Firefly Luciferase IC50

| Compound | IC50 [1] [µM] | further results |
| --- | --- | --- |
| COCC(C)NC(=O)c1nnc(-c2ccccc2Nc2ccc(C(F)(F)F)cc2)o1 (stereo not shown) [Compound 188, N-(1-methoxypropan-2-yl)-5-(2-((4-(trifluoromethyl)phenyl)amino)phenyl)-1,3,4-oxadiazole-2-carboxamide] | 0.1 to 1 | – |
| CC(CO)NC(=O)c1nnc(-c2ccccc2Nc2ccc(C(F)(F)F)cc2)o1 (stereo not shown) [Compound 189, N-(1-hydroxypropan-2-yl)-5-(2-((4-(trifluoromethyl)phenyl)amino)phenyl)-1,3,4-oxadiazole-2-carboxamide] | 0.1 to 1 | – |
| COCCNC(=O)c1nnc(-c2ccccc2Nc2ccc(C(F)(F)F)cc2)o1 [Compound 190, N-(2-methoxyethyl)-5-(2-((4-(trifluoromethyl)phenyl)amino)phenyl)-1,3,4-oxadiazole-2-carboxamide] | < 0.1 | – |
| O=C(NCCO)c1nnc(-c2ccccc2Nc2ccc(C(F)(F)F)cc2)o1 [Compound 191, N-(2-hydroxyethyl)-5-(2-((4-(trifluoromethyl)phenyl)amino)phenyl)-1,3,4-oxadiazole-2-carboxamide] | < 0.1 | – |
| CON(C)C(=O)c1nnc(-c2ccccc2Nc2ccc(C(F)(F)F)cc2)o1 [Compound 192, N-methoxy-N-methyl-5-(2-((4-(trifluoromethyl)phenyl)amino)phenyl)-1,3,4-oxadiazole-2-carboxamide] | 0.1 to 1 | – |
| CN(C)C(=O)c1nnc(-c2ccccc2Nc2ccc(C(F)(F)F)cc2)o1 [Compound 194, N,N-dimethyl-5-(2-((4-(trifluoromethyl)phenyl)amino)phenyl)-1,3,4-oxadiazole-2-carboxamide] | – | IC50 [2]: 1 to 5 µM |
| O=C(NC1CC1)c1nnc(-c2ccccc2Nc2ccc(C(F)(F)F)cc2)o1 [Compound 195, N-cyclopropyl-5-(2-((4-(trifluoromethyl)phenyl)amino)phenyl)-1,3,4-oxadiazole-2-carboxamide] | 0.1 to 1 | – |
| CC(C)NC(=O)c1nnc(-c2ccccc2Nc2ccc(C(F)(F)F)cc2)o1 [Compound 196, N-isopropyl-5-(2-((4-(trifluoromethyl)phenyl)amino)phenyl)-1,3,4-oxadiazole-2-carboxamide] | – | IC50 [3]: 0.1 to 1 µM |
| CCNC(=O)c1nnc(-c2ccccc2Nc2ccc(C(F)(F)F)cc2)o1 [Compound 197, N-ethyl-5-(2-((4-(trifluoromethyl)phenyl)amino)phenyl)-1,3,4-oxadiazole-2-carboxamide] | – | IC50 [3]: < 0.1 µM |
| CNC(=O)c1nnc(-c2ccccc2Nc2ccc(C(F)(F)F)cc2)o1 [Compound 198, N-methyl-5-(2-((4-(trifluoromethyl)phenyl)amino)phenyl)-1,3,4-oxadiazole-2-carboxamide] | < 0.1 | – |
| CC1(C)OCC(O)(c2nnc(-c3ccccc3Nc3ccc(C(F)(F)F)cc3)o2)CO1 [Compound 199, 2,2-dimethyl-5-(5-(2-((4-(trifluoromethyl)phenyl)amino)phenyl)-1,3,4-oxadiazol-2-yl)-1,3-dioxan-5-ol] | 1 to 5 | – |
| CCOC(=O)C(O)(C(=O)OCC)c1nnc(-c2ccccc2Nc2ccc(C(F)(F)F)cc2)o1 [Compound 200, diethyl 2-hydroxy-2-(5-(2-((4-(trifluoromethyl)phenyl)amino)phenyl)-1,3,4-oxadiazol-2-yl)malonate] | – | IC50 [2]: 0.1 to 1 µM |
| OCC(O)(CO)c1nnc(-c2ccccc2Nc2ccc(C(F)(F)F)cc2)o1 [Compound 201, 2-(5-(2-((4-(trifluoromethyl)phenyl)amino)phenyl)-1,3,4-oxadiazol-2-yl)propane-1,2,3-triol] | < 0.1 | – |
| CC(=O)OC(CO)c1nnc(-c2ccccc2Nc2ccc(C(F)(F)F)cc2)o1 (stereo not shown) [Compound 202, 2-hydroxy-1-(5-(2-((4-(trifluoromethyl)phenyl)amino)phenyl)-1,3,4-oxadiazol-2-yl)ethyl acetate] | < 0.1 | – |
| OC(CF)c1nnc(-c2ccccc2Nc2ccc(C(F)(F)F)cc2)o1 (stereo not shown) [Compound 203, 2-fluoro-1-(5-(2-((4-(trifluoromethyl)phenyl)amino)phenyl)-1,3,4-oxadiazol-2-yl)ethan-1-ol] | < 0.1 | – |
| FC(F)(F)c1ccc(Nc2ccc(Br)cc2-c2nnc(C3CC3)o2)cc1 [Compound 204, 4-bromo-2-(5-cyclopropyl-1,3,4-oxadiazol-2-yl)-N-(4-(trifluoromethyl)phenyl)aniline] | 0.1 to 1 | – |
